In patent US12150998B2, “Bicyclic peptide ligands specific for P-selectin” (BicycleTx Limited, priority 2021, dated 2024):
Like-named read-outs stand apart in the source and are kept apart here. Starred links: 1 amine or outer side, 2 acyl side, 3 side chain; linkers in the order of their positions; H or OH if unused. Positions of bridges follow the written chain, without caps; N, C: chain ends. Residues, ends and D or L forms follow the SMILES beside them. Chains are numbered I, II in the order given. X3 = O=C(CCOCCN(CCOCCC(=O)NCCOCCOCCOCCOCCOCCOCCOCCOCCOCCOCCOCCOCCOCCOCCOCCOCCOCCOCCOCCOCCOCCOCCOCCn1cc(CCC(=O)[*:2])nn1)CCOCCC(=O)NCCOCCOCCOCCOCCOCCOCCOCCOCCOCCOCCOCCOCCOCCOCCOCCOCCOCCOCCOCCOCCOCCOCCOCCn1cc(CCC(=O)[*:3])nn1)NCCOCCOCCOCCOCCOCCOCCOCCOCCOCCOCCOCCOCCOCCOCCOCCOCCOCCOCCOCCOCCOCCOCCOCCn1cc(CCC(=O)[*:1])nn1; X2 = O=C(CCCC(=O)NCCOCCOCCOCCOCCOCCOCCOCCOCCOCCOCCOCCOCCOCCOCCOCCOCCOCCOCCOCCOCCOCCOCCOCCn1cc(CCC(=O)[*:2])nn1)NCCOCCOCCOCCOCCOCCOCCOCCOCCOCCOCCOCCOCCOCCOCCOCCOCCOCCOCCOCCOCCOCCOCCOCCn1cc(CCC(=O)[*:1])nn1; X4 = O=C(CCOCCN(CCOCCC(=O)NCCOCCOCCOCCOCCOCCOCCOCCOCCOCCOCCn1cc(CCC(=O)[*:2])nn1)CCOCCC(=O)NCCOCCOCCOCCOCCOCCOCCOCCOCCOCCOCCn1cc(CCC(=O)[*:3])nn1)NCCOCCOCCOCCOCCOCCOCCOCCOCCOCCOCCn1cc(CCC(=O)[*:1])nn1; X5 = O=C(CCCC(=O)NCCOCCOCCOCCOCCOCCOCCOCCOCCOCCOCCn1cc(CCC(=O)[*:2])nn1)NCCOCCOCCOCCOCCOCCOCCOCCOCCOCCOCCn1cc(CCC(=O)[*:1])nn1; TATA = O=C(CC[*:1])N1CN(C(=O)CC[*:2])CN(C(=O)CC[*:3])C1

Target: T1, human P-Selectin protein (Homo sapiens, UniProt P16109)
T1 sequence (P16109 42-830): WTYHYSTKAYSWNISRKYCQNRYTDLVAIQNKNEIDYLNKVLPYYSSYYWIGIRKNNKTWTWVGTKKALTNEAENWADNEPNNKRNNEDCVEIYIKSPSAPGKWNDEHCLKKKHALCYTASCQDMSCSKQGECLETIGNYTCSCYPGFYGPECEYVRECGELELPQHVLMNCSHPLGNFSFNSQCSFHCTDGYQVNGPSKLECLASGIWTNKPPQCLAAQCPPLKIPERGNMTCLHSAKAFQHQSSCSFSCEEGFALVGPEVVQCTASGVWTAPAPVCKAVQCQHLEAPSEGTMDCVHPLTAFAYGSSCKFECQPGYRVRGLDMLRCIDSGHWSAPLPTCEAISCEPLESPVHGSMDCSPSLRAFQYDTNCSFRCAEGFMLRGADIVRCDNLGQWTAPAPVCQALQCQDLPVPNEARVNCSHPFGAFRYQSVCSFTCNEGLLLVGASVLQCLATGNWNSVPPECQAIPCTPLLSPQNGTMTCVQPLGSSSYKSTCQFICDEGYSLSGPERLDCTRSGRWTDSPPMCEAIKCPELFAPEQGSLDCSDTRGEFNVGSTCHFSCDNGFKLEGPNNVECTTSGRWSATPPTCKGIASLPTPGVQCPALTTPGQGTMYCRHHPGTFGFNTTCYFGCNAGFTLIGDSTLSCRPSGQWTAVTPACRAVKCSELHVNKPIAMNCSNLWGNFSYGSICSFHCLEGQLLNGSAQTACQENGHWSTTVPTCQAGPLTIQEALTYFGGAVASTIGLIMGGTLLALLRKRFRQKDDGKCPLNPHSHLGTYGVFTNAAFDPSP
Assay: SPR binding assay (Biacore)
Conditions: recombinant biotinylated human P-Selectin, 25° C.
Method: Biacore experiments were performed to determine ka (M−1s−1), kd (s−1), KD (nM) values of monomeric peptides binding to human Selectin proteins. Recombinant biotinylated human P-Selectin protein was used. For analysis of binding, either a Biacore 3000 or 5200 instrument was used with a CMS sensor chip (GE Healthcare). For sensor chip surface preparation, streptavidin was immobilized on the chip using standard amine-coupling chemistry at 25° C. with HBS-N (10 mM HEPES, 0.15 M NaCl, pH 7.4) as the running buffer. The carboxymethyl dextran surface was activated with a 12 min injection of a 1:1 ratio of 0.4 M 1-ethyl-3-(3-dim ethyl aminopropyl) carbodiimide hydrochloride (EDC)/0.1 M N-hydroxy succinimide (NHS) at a flow rate of 10 μl/min. For capture of streptavidin, protein was diluted to 0.2 mg/ml in 10 mM sodium acetate (pH 4.5) and captured by injecting 70 μl onto the activated chip surface. Residual activated groups were blocked with a 7 min injection of 1 M ethanolamine (pH 8.5). Biotinylated protein stock was diluted 1:100 in HBS-N and captured on one flow cell at 5 μl/min to a level of 1000-1500 RU. Buffer was changed to PBS/0.05% Tween 20 and a dilution series of the peptides was prepared in this buffer with a final DMSO concentration of 0.5%. The top concentration of the analyte varied from 200 nM to 50 μM; depending on predicted affinity of the interaction. In all cases a titration was performed with either seven 2-fold dilutions or five 3-fold dilutions. The SPR analysis was run at 25° C. with a flow rate of 50-80 μl/min with 60 seconds association and a suitable disassociation period (100-900 seconds). Data were corrected for DMSO excluded volume effects. All data were double-referenced for blank injections and reference surface using standard processing procedures and data processing and kinetic fitting were performed using Scrubber software, version 2.0c (BioLogic Software). Data were fitted using mass transport model allowing for mass transport effects where appropriate.

[1] = read-out: Affinity KD determined by SPR

Kd [1] [nM]	Compound	Kd (Affinity KD determined by SPR) [nM]
500	CSCC[C@@H]1NC(=O)[C@H](Cc2ccc(O)cc2)NC(=O)[C@@H](NC(=O)[C@H](C)NC(C)=O)CSCCC(=O)N2CN3CN(C2)C(=O)CCSC[C@H](NC(=O)[C@H](Cc2c[nH]c4ccccc24)NC(=O)[C@H](CCC(=O)O)NC1=O)C(=O)N[C@@H](CC(=O)O)C(=O)N[C@@H](C(C)C)C(=O)N[C@@H]([C@@H](C)O)C(=O)N[C@@H](CC(=O)O)C(=O)N[C@@H](Cc1ccc(O)cc1)C(=O)NCC(=O)N[C@H](C(=O)N[C@@H](CCCCNC(=O)CCc1cn(CCOCCOCCOCCOCCOCCOCCOCCOCCOCCOCCNC(=O)CCCC(=O)NCCOCCOCCOCCOCCOCCOCCOCCOCCOCCOCCn2cc(CCC(=O)NCCCC[C@H](NC(=O)[C@@H]4CSCCC(=O)N5CN6CN(C5)C(=O)CCSC[C@H](NC(=O)[C@H](Cc5c[nH]c7ccccc57)NC(=O)[C@H](CCC(=O)O)NC(=O)[C@H](CCSC)NC(=O)[C@H](Cc5ccc(O)cc5)NC(=O)[C@@H](NC(=O)[C@H](C)NC(C)=O)CSCCC6=O)C(=O)N[C@@H](CC(=O)O)C(=O)N[C@@H](C(C)C)C(=O)N[C@@H]([C@@H](C)O)C(=O)N[C@@H](CC(=O)O)C(=O)N[C@@H](Cc5ccc(O)cc5)C(=O)NCC(=O)N4)C(N)=O)nn2)nn1)C(N)=O)CSCCC3=O [BCY5456] (I: Ac-ACYMEWCDVTDYGCK-NH2 / II: Ac-ACYMEWCDVTDYGCK-NH2; linker I:2-I:7-I:14, II:2-II:7-II:14 via TATA; linker I:15-II:15 via X5)	–
–	I: Ac-ACYMEWCDVTDYGCK-NH2 / II: Ac-ACYMEWCDVTDYGCK-NH2 / III: Ac-ACYMEWCDVTDYGCK-NH2 (linker I:2-I:7-I:14, II:2-II:7-II:14, III:2-III:7-III:14 via TATA; linker I:15-II:15-III:15 via X3) [BCY5461]	230
–	CSCC[C@@H]1NC(=O)[C@H](Cc2ccc(O)cc2)NC(=O)[C@@H](NC(=O)[C@H](C)NC(C)=O)CSCCC(=O)N2CN3CN(C2)C(=O)CCSC[C@H](NC(=O)[C@H](Cc2c[nH]c4ccccc24)NC(=O)[C@H](CCC(=O)O)NC1=O)C(=O)N[C@@H](CC(=O)O)C(=O)N[C@@H](C(C)C)C(=O)N[C@@H]([C@@H](C)O)C(=O)N[C@@H](CC(=O)O)C(=O)N[C@@H](Cc1ccc(O)cc1)C(=O)NCC(=O)N[C@H](C(=O)N[C@@H](CCCCNC(=O)CCc1cn(CCOCCOCCOCCOCCOCCOCCOCCOCCOCCOCCOCCOCCOCCOCCOCCOCCOCCOCCOCCOCCOCCOCCOCCNC(=O)CCCC(=O)NCCOCCOCCOCCOCCOCCOCCOCCOCCOCCOCCOCCOCCOCCOCCOCCOCCOCCOCCOCCOCCOCCOCCOCCn2cc(CCC(=O)NCCCC[C@H](NC(=O)[C@@H]4CSCCC(=O)N5CN6CN(C5)C(=O)CCSC[C@H](NC(=O)[C@H](Cc5c[nH]c7ccccc57)NC(=O)[C@H](CCC(=O)O)NC(=O)[C@H](CCSC)NC(=O)[C@H](Cc5ccc(O)cc5)NC(=O)[C@@H](NC(=O)[C@H](C)NC(C)=O)CSCCC6=O)C(=O)N[C@@H](CC(=O)O)C(=O)N[C@@H](C(C)C)C(=O)N[C@@H]([C@@H](C)O)C(=O)N[C@@H](CC(=O)O)C(=O)N[C@@H](Cc5ccc(O)cc5)C(=O)NCC(=O)N4)C(N)=O)nn2)nn1)C(N)=O)CSCCC3=O [BCY5457] (I: Ac-ACYMEWCDVTDYGCK-NH2 / II: Ac-ACYMEWCDVTDYGCK-NH2; linker I:2-I:7-I:14, II:2-II:7-II:14 via TATA; linker I:15-II:15 via X2)	969
400	CSCC[C@@H]1NC(=O)[C@H](Cc2ccc(O)cc2)NC(=O)[C@@H](NC(=O)[C@H](C)NC(=O)CCc2cn(CCOCCOCCOCCOCCOCCOCCOCCOCCOCCOCCNC(=O)CCCC(=O)NCCOCCOCCOCCOCCOCCOCCOCCOCCOCCOCCn3cc(CCC(=O)N[C@@H](C)C(=O)N[C@H]4CSCCC(=O)N5CN6CN(C5)C(=O)CCSC[C@H](NC(=O)[C@H](Cc5c[nH]c7ccccc57)NC(=O)[C@H](CCC(=O)O)NC(=O)[C@H](CCSC)NC(=O)[C@H](Cc5ccc(O)cc5)NC4=O)C(=O)N[C@@H](CC(=O)O)C(=O)N[C@@H](C(C)C)C(=O)N[C@@H]([C@@H](C)O)C(=O)N[C@@H](CC(=O)O)C(=O)N[C@@H](Cc4ccc(O)cc4)C(=O)NCC(=O)N[C@H](C(=O)N[C@@H](C)C(N)=O)CSCCC6=O)nn3)nn2)CSCCC(=O)N2CN3CN(C2)C(=O)CCSC[C@H](NC(=O)[C@H](Cc2c[nH]c4ccccc24)NC(=O)[C@H](CCC(=O)O)NC1=O)C(=O)N[C@@H](CC(=O)O)C(=O)N[C@@H](C(C)C)C(=O)N[C@@H]([C@@H](C)O)C(=O)N[C@@H](CC(=O)O)C(=O)N[C@@H](Cc1ccc(O)cc1)C(=O)NCC(=O)N[C@H](C(=O)N[C@@H](C)C(N)=O)CSCCC3=O [BCY5454]	–
–	CSCC[C@@H]1NC(=O)[C@H](Cc2ccc(O)cc2)NC(=O)[C@@H](NC(=O)[C@H](C)NC(C)=O)CSCCC(=O)N2CN3CN(C2)C(=O)CCSC[C@H](NC(=O)[C@H](Cc2c[nH]c4ccccc24)NC(=O)[C@H](CCC(=O)O)NC1=O)C(=O)N[C@@H](CC(=O)O)C(=O)N[C@@H](C(C)C)C(=O)N[C@@H]([C@@H](C)O)C(=O)N[C@@H](CC(=O)O)C(=O)N[C@@H](Cc1ccc(O)cc1)C(=O)NCC(=O)N[C@H](C(=O)N[C@@H](CCCCNC(=O)CCc1cn(CCOCCOCCOCCOCCOCCOCCOCCOCCOCCOCCOCCOCCOCCOCCOCCOCCOCCOCCOCCOCCOCCOCCOCCNC(=O)CCOCC(COCCC(=O)NCCOCCOCCOCCOCCOCCOCCOCCOCCOCCOCCOCCOCCOCCOCCOCCOCCOCCOCCOCCOCCOCCOCCOCCn2cc(CCC(=O)NCCCC[C@H](NC(=O)[C@@H]4CSCCC(=O)N5CN6CN(C5)C(=O)CCSC[C@H](NC(=O)[C@H](Cc5c[nH]c7ccccc57)NC(=O)[C@H](CCC(=O)O)NC(=O)[C@H](CCSC)NC(=O)[C@H](Cc5ccc(O)cc5)NC(=O)[C@@H](NC(=O)[C@H](C)NC(C)=O)CSCCC6=O)C(=O)N[C@@H](CC(=O)O)C(=O)N[C@@H](C(C)C)C(=O)N[C@@H]([C@@H](C)O)C(=O)N[C@@H](CC(=O)O)C(=O)N[C@@H](Cc5ccc(O)cc5)C(=O)NCC(=O)N4)C(N)=O)nn2)(COCCC(=O)NCCOCCOCCOCCOCCOCCOCCOCCOCCOCCOCCOCCOCCOCCOCCOCCOCCOCCOCCOCCOCCOCCOCCOCCn2cc(CCC(=O)NCCCC[C@H](NC(=O)[C@@H]4CSCCC(=O)N5CN6CN(C5)C(=O)CCSC[C@H](NC(=O)[C@H](Cc5c[nH]c7ccccc57)NC(=O)[C@H](CCC(=O)O)NC(=O)[C@H](CCSC)NC(=O)[C@H](Cc5ccc(O)cc5)NC(=O)[C@@H](NC(=O)[C@H](C)NC(C)=O)CSCCC6=O)C(=O)N[C@@H](CC(=O)O)C(=O)N[C@@H](C(C)C)C(=O)N[C@@H]([C@@H](C)O)C(=O)N[C@@H](CC(=O)O)C(=O)N[C@@H](Cc5ccc(O)cc5)C(=O)NCC(=O)N4)C(N)=O)nn2)COCCC(=O)NCCOCCOCCOCCOCCOCCOCCOCCOCCOCCOCCOCCOCCOCCOCCOCCOCCOCCOCCOCCOCCOCCOCCOCCn2cc(CCC(=O)NCCCC[C@H](NC(=O)[C@@H]4CSCCC(=O)N5CN6CN(C5)C(=O)CCSC[C@H](NC(=O)[C@H](Cc5c[nH]c7ccccc57)NC(=O)[C@H](CCC(=O)O)NC(=O)[C@H](CCSC)NC(=O)[C@H](Cc5ccc(O)cc5)NC(=O)[C@@H](NC(=O)[C@H](C)NC(C)=O)CSCCC6=O)C(=O)N[C@@H](CC(=O)O)C(=O)N[C@@H](C(C)C)C(=O)N[C@@H]([C@@H](C)O)C(=O)N[C@@H](CC(=O)O)C(=O)N[C@@H](Cc5ccc(O)cc5)C(=O)NCC(=O)N4)C(N)=O)nn2)nn1)C(N)=O)CSCCC3=O [BCY5465]	140
239	I: Ac-ACYMEWCDVTDYGCK-NH2 / II: Ac-ACYMEWCDVTDYGCK-NH2 / III: Ac-ACYMEWCDVTDYGCK-NH2 (linker I:2-I:7-I:14, II:2-II:7-II:14, III:2-III:7-III:14 via TATA; linker I:15-II:15-III:15 via X4) [BCY5460]	–
